Results published in PMC4158420, “Crenactin from Pyrobaculum calidifontis is closely related to actin in structure and forms steep helical filaments” (Febs Letters, 2014).

Target: T1, crenactin (Pc crenactin) (Pyrobaculum calidifontis, UniProt A3MWN5)
T1 construct: gene cren-1; full length 1-432, codon-optimised, expressed in E. coli as His6-SUMO fusion, tag cleaved by SENP1 with no residues added or removed; helical filament in crystal
Test: X-ray crystallography, […] Å
Format: binding
Conditions: crystals from 100 mM phosphate/citrate pH 4.2, 200 mM lithium sulfate, 20% PEG 1000; one ADP per subunit, 0 Mg; nucleotide cleft between domains I and II

T1 sequence (A3MWN5 whole entry, the tested form may be a part): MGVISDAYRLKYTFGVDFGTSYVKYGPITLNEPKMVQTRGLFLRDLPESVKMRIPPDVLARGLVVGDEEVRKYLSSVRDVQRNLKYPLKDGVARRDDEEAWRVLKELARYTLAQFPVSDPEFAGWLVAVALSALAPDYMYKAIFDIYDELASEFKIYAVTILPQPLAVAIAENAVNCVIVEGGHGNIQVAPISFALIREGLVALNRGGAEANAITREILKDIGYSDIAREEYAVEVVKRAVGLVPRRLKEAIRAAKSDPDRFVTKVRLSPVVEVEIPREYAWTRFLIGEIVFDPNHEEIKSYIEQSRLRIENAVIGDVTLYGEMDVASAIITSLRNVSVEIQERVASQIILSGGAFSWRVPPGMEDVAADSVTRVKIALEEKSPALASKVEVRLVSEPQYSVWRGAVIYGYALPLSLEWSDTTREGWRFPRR

Nc1ncnc2c1ncn2[C@@H]1O[C@H](COP(=O)(O)OP(=O)(O)O)[C@@H](O)[C@H]1O [ADP]
X-ray crystallography, 3.2 Å: one molecule of ADP was located and added in each crenactin subunit
